Activity data for 2 molecules are collected here from ChEMBL document CHEMBL4340564, “Quercetin-3-oleoyl derivatives as new GPR40 agonists: Molecular docking studies and functional evaluation” (Bioorg Med Chem Lett, 2019).

The source made the active and inactive calls. The rule behind the calls is not given here.

Common to all, as to format: cell-based
The target in assay [1] is Free fatty acid receptor 1 (Homo sapiens) (UniProt O14842). As to the kind of experiment: Agonist activity at human GPR40 expressed in rat INS1(832/13) cells harboring human proinsulin assessed as increase in glucose-stimulated insulin secretion at 20 to 40 uM incubated for 5 mins by ELISA.
Free fatty acid receptor 1 (Homo sapiens), sequence (O14842 whole entry): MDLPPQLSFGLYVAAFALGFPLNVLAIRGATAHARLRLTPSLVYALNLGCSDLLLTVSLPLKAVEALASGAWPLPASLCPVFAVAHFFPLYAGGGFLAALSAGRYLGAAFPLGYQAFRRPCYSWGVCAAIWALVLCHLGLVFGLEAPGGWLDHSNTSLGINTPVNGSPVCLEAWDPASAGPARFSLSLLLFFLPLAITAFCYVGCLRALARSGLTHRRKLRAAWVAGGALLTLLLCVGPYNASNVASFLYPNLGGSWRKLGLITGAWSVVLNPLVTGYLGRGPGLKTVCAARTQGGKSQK
Assay [2] has the same target. The assay is described as follows: Agonist activity at human GPR40 expressed in rat INS1(832/13) cells harboring human proinsulin assessed as increase in glucose-stimulated insulin secretion at 10 uM incubated for 5 mins in presence of GPR40 antagonist DC260126 by ELISA.
Assay [3] shares this target. As to the kind of experiment: Partial agonist activity at human GPR40 expressed in rat INS1(832/13) cells harboring human proinsulin assessed as potentiation of 2.5 uM AV1-induced increase in glucose-stimulated insulin secretion at 21 uM by ELISA.
The target is the same in assay [4]. As to the kind of experiment: Agonist activity at human GPR40 expressed in rat INS1(832/13) cells harboring human proinsulin assessed as increase in glucose-stimulated insulin secretion at 40 uM incubated for 5 mins in presence of GPR40 antagonist DC260126 by ELISA.
Assay [5] has the same target. As to the kind of experiment: Antagonist activity at human GPR40 expressed in rat INS1(832/13) cells harboring human proinsulin assessed as inhibition of 20 uM AV1-induced increase in glucose-stimulated insulin secretion at 40 uM by ELISA.
The target is the same in assay [6]. The assay is described as follows: Antagonist activity at human GPR40 expressed in rat INS1(832/13) cells harboring human proinsulin assessed as inhibition of 20 uM AV1-induced increase in glucose-stimulated insulin secretion at 21 uM by ELISA.
The target is the same in assay [7]. As to the kind of experiment: Partial agonist activity at human GPR40 expressed in rat INS1(832/13) cells harboring human proinsulin assessed as potentiation of 2.5 uM AV1-induced increase in glucose-stimulated insulin secretion at 40 uM by ELISA.
For assay [8] the target is unchanged. The assay is described as follows: Partial agonist activity at human GPR40 expressed in rat INS1(832/13) cells harboring human proinsulin assessed as potentiation of 10 uM AV1-induced increase in glucose-stimulated insulin secretion by ELISA.

As to `CCCCCCCC/C=C\CCCCCCCC(=O)Oc1c(-c2ccc3c(c2)OC(c2ccccc2)(c2ccccc2)O3)oc2cc(O)cc(O)c2c1=O`, the outcome in assay [1] was Active. Further, the outcome in assay [2] was inactive.
As to `CCCCCCCC/C=C\CCCCCCCC(=O)Oc1c(-c2ccc(O)c(O)c2)oc2cc(O)cc(O)c2c1=O`, the result in assay [1], in assay [3], in assay [5], in assay [6] and in assay [7] was Active. Moreover, in assay [4], the outcome was inactive. Further, in assay [8], the Activity result was “Dose-dependent effect”.
